Results: patent US8845879B2 (priority 2010, dated 2014)
Where two headings read alike, the source gives them in different places.

What was measured:
[1] = test system: mitochondria isolated from Saccharomyces cerevisiae; format: biochemical
[2] = test system: immobilized mouse liver mitochondria; format: biochemical
[3] = before vs after overnight soak at 4° C. in pesticide solution, average ± standard deviation

## O=C(O)COc1ccc(Cl)cc1Cl [2,4-D, 2,4-Dichlorophenoxyacetic acid]
[1]
  change in peak area (ΔAh): −8.237E−05 ± 1.713E−05 C
  change in peak height (Δip): −1.617E−06 ± 5.286E−07 A

## antimycin
[2]
  inhibition of mitochondrial function (in words): strong inhibitory response

## C=C(C)[C@H]1Cc2c(ccc3c2O[C@@H]2COc4cc(OC)c(OC)cc4[C@@H]2C3=O)O1 [rotenone]
[2]
  inhibition of mitochondrial function (in words): strong inhibitory response

## CCOP(=S)(OCC)Oc1ccc([N+](=O)[O-])cc1 [Parathion]
[1]; [3]
  change in peak area (ΔAh): −2.721E−05 ± 9.349E−06 C
  change in peak height (Δip): −4.491E−07 ± 2.512E−07 A

## O=C(O)c1ccccc1O [Salicylic acid]
[2]
  change in current after treatment (in words): not statistically significant
  higher metabolic energy flux than untreated mitochondria: 18.6±1.5%

## CC[C@H]1/C=C/C=C/C[C@@H](C)[C@H](O)[C@@](C)(O)C(=O)[C@@H](C)[C@H](O)[C@@H](C)C(=O)[C@@H](C)[C@H](O)[C@@H](C)/C=C/C(=O)O[C@@H]2[C@H](C)[C@H](CC1)O[C@]1(CC[C@H](C)[C@H](C[C@@H](C)O)O1)[C@H]2C [oligomycin]
[2]
  attenuation (decrease) in current: 36.5±3.7%
  attenuation in metabolic energy conversion: 60.9±1.0%

## CC1=NS(=O)(=O)c2cc(Cl)ccc2N1 [diazoxide]
[2]
  inhibition of mitochondrial function (in words): partial inhibition

## C[n+]1ccc(-c2cc[n+](C)cc2)cc1 [Paraquat]
[1]
  change in peak area (ΔAh): −3.690E−05 ± 1.109E−05 C
  change in peak height (Δip): −8.582E−07 ± 1.870E−07 A

## COc1ccc2nc([S@@+]([O-])Cc3ncc(C)c(OC)c3C)[nH]c2c1 [Esomeprazole]
[2]
  attenuated current: 16.8±6.4%
  attenuation (decrease) in current: 1.7±10.3%
  attenuation in metabolic energy conversion: 19.9±7.6%
  attenuation in metabolic energy production: 58.8±11.1%

## CC1(C)C(C=C(Cl)Cl)C1C(=O)OCc1cccc(Oc2ccccc2)c1 (stereo not drawn) [Permethrin]
[1]
  change in peak area (ΔAh): −6.597E−05 ± 1.238E−05 C
  change in peak height (Δip): −1.015E−06 ± 2.065E−07 A

## CCNc1nc(Cl)nc(NC(C)C)n1 [Atrazine]
[1]
  change in peak area (ΔAh): −6.809E−05 ± 1.708E−05 C
  change in peak height (Δip): −8.290E−07 ± 2.197E−07 A
